Laboratory results reported in patent US20160128944A1, “COATED PARTICLES AND COMPOSITIONS COMPRISING SAME” (VYOME BIOSCIENCES PVT. LTD., priority 2013, published 2016).
Read-outs that look alike come from different tables or passages of the source.

Tested on: M. furfur
Description: The time-kill assays are used to evaluate efficacy of antimicrobial agents, either singly or in combination, and the results can help in establishing the dose and/or time of application of the active. The time-kill assays can be used to study both concentration-dependent and time-dependent antimicrobial action.
Method: M. furfur cells were suspended in Sabouraud Dextrose Broth (SDB) at inoculum concentration of 7×10^7 cells/ml. Cells were taken from a freshly growing (3-7 days old) plate and cell suspension is vortexed to remove the cell clumps as much as possible. Sterile media were supplemented with chloramphenicol (0.25 mg/ml), cycloheximide (0.04 mg/ml) and olive oil (2%). The media were then supplemented with appropriate concentrations (two-fold serial dilutions using SDB) of zinc pyrithione powder (10 μg/ml and 50 μg/ml) with different concentrations of Capmul 908-P […]. The cultures were incubated on a tube rotator at 34° C. in CO2 incubator.
To measure the colony forming units (CFU), at different time points, aliquots (50 μl) of Malassezia cultures were serially diluted with SDBT medium (SDB containing 0.1% Triton X-100) and plated on SDA plates. The plates were incubated at 34° C. in CO2 incubator for 3 days. The viable colonies were counted and converted to CFU/ml.

zinc pyrithione [ZPT]
Log CFU Count of M. furfur (ZPT 10 μg/ml, Capmul 908-P 30 μg/ml, 6 hrs): 6.50 Log CFU
Log CFU Count of M. furfur (ZPT 10 μg/ml, Capmul 908-P 30 μg/ml, 24 hrs): 5.94 Log CFU
Log CFU Count of M. furfur (ZPT 10 μg/ml, Capmul 908-P 30 μg/ml, 48 hrs): 5.06 Log CFU
Log CFU Count of M. furfur (ZPT 10 μg/ml, Capmul 908-P 50 μg/ml, 6 hrs): 6.37 Log CFU
Log CFU Count of M. furfur (ZPT 10 μg/ml, Capmul 908-P 50 μg/ml, 24 hrs): 5.57 Log CFU
Log CFU Count of M. furfur (ZPT 10 μg/ml, Capmul 908-P 50 μg/ml, 48 hrs): 4.80 Log CFU
Log CFU Count of M. furfur (ZPT 10 μg/ml, Capmul 908-P 90 μg/ml, 6 hrs): 6.33 Log CFU
Log CFU Count of M. furfur (ZPT 10 μg/ml, Capmul 908-P 90 μg/ml, 24 hrs): 5.55 Log CFU
Log CFU Count of M. furfur (ZPT 10 μg/ml, Capmul 908-P 90 μg/ml, 48 hrs): 4.77 Log CFU
Log CFU Count of M. furfur (ZPT 10 μg/ml, Capmul 908-P nil, 6 hrs): 6.56 Log CFU
Log CFU Count of M. furfur (ZPT 10 μg/ml, Capmul 908-P nil, 24 hrs): 6.13 Log CFU
Log CFU Count of M. furfur (ZPT 10 μg/ml, Capmul 908-P nil, 48 hrs): 5.27 Log CFU
Log CFU Count of M. furfur (ZPT 50 μg/ml, Capmul 908-P 30 μg/ml, 6 h): 6.06 Log CFU
Log CFU Count of M. furfur (ZPT 50 μg/ml, Capmul 908-P 30 μg/ml, 24 h): 4.69 Log CFU
Log CFU Count of M. furfur (ZPT 50 μg/ml, Capmul 908-P 30 μg/ml, 48 h): 3.25 Log CFU
Log CFU Count of M. furfur (ZPT 50 μg/ml, Capmul 908-P 50 μg/ml, 6 h): 5.94 Log CFU
Log CFU Count of M. furfur (ZPT 50 μg/ml, Capmul 908-P 50 μg/ml, 24 h): 4.62 Log CFU
Log CFU Count of M. furfur (ZPT 50 μg/ml, Capmul 908-P 50 μg/ml, 48 h): 3.04 Log CFU
Log CFU Count of M. furfur (ZPT 50 μg/ml, Capmul 908-P 90 μg/ml, 6 h): 5.52 Log CFU
Log CFU Count of M. furfur (ZPT 50 μg/ml, Capmul 908-P 90 μg/ml, 24 h): 3.63 Log CFU
Log CFU Count of M. furfur (ZPT 50 μg/ml, Capmul 908-P 90 μg/ml, 48 h): 2.08 Log CFU
Log CFU Count of M. furfur (ZPT 50 μg/ml, Capmul 908-P nil, 6 h): 6.43 Log CFU
Log CFU Count of M. furfur (ZPT 50 μg/ml, Capmul 908-P nil, 24 h): 5.39 Log CFU
Log CFU Count of M. furfur (ZPT 50 μg/ml, Capmul 908-P nil, 48 h): 3.92 Log CFU
anti-microbial activity towards M. furfur in combination with propylene glycol monocaprylate (time-kill, ZPT 10 and 50 μg/ml with Capmul 908-P): potentiated with increasing concentration of propylene glycol monocaprylate
